In patent publication US20120088827A1 (Profectus Biosciences, Inc., priority 2009, published 2012):

Tests used:
[1] = tested on: NF-κB driven transcription (pNF-κB-luc reporter, 293 cells); test: 293/NF-kB-luc reporter cell assay; type: cell-based; settings: Homo sapiens; compound 2 hours, then 20 ng/ml TNF-α for 18 hours; luminescence
Description: (§1) Two reporter cell assays were used to determine the ability of the compounds of Examples 1-12 to inhibit NF-κB driven transcription. The first assay was a 293-cell based assay with a stably integrated pNF-κB-luc reporter plasmid containing 3 NF-κB promoter elements. The second assay was a 293-cell based assay with a stably integrated pTRH1-NF-κB-dscGFP reporter containing 4 NF-κB promoter elements. Cells were treated with 0, 0.2, 1, 10, 20 and 40 μM of the compounds of Example 1-12 for 2 hours then were induced with 20 ng/ml TNF-α for 18 hours. Following the induction, luminescence or fluorescence was quantified using a Beckman-Coulter 2300 plate reader. […] As a control, 0.5% DMSO treated and untreated cells were compared to verify that the compounds of Examples 1-12 had no effect on the expression of luciferase or in the readout of the assay. There was a slight decrease in the output from the assay in the DMSO treated population although it was not statistically significant. As a result of the controls, the decrease in activity in the drug treated samples was compared to the DMSO control sample.

[2] = target: T1, c-Rel (Homo sapiens, UniProt Q04864); test: TransAM NF-κB Family DNA Binding ELISA, c-Rel
T1 sequence (Q04864 1-619): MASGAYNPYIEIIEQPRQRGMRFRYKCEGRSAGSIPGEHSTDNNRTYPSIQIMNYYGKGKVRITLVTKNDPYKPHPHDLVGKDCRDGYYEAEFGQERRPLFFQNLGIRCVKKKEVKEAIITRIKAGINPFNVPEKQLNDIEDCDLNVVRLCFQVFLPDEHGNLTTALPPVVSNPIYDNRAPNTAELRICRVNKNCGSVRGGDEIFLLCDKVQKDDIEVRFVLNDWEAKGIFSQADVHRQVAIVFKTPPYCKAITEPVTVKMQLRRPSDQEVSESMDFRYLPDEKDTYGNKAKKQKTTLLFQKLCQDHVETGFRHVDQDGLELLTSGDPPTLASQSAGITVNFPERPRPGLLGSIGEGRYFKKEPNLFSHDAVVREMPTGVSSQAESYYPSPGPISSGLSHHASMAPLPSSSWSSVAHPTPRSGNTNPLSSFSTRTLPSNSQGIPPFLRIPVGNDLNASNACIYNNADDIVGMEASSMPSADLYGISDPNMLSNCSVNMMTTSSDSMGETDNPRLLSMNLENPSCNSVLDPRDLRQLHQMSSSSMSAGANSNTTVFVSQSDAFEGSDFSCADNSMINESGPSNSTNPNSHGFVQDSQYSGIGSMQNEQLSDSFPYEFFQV
Description: The binding activity of NF-κB heterodimer or homodimer subunits from activated nuclear extracts or purified recombinant NF-κB proteins exposed to the drug compounds was evaluated using the TransAM NF-κB Family binding ELISA (Active Motif). Approximately 3-5 μg of nuclear extracts from TNFα activated Hela or Raji cells (Active Motif) or 20 ng of purified recombinant proteins (p65 and p50 from Active Motif, p52 from Santa Cruz) were incubated for 1 hour at room temperature with 20 μL drug compounds diluted in Complete Lysis buffer without DTT. Treated samples were then transferred to 30 μL Complete Binding Buffer (with DTT) in microplate wells pre-coated with the NF-κB consensus oligonucleotide. […] The plate was incubated for 1 hour at room temperature with gentle shaking and then washed 3 times with 200 μL 1× Wash Buffer. NF-κB p65, p50, p52, RelB, or c-Rel subunits bound to the plate were detected with 100 μL of the primary antibody (diluted 1:1000 in 1× Antibody Buffer) specific for that subunit. The plate was incubated for 1 hour at room temperature and then washed 3 times with 200 μL 1× Wash Buffer. Next, 100 μL of a HRP conjugated goat anti-rabbit antibody (diluted 1:1,000 in 1× Antibody Buffer) was added to each well. The plate was incubated for 1 hour at room temperature and then washed 4 times with 200 μL 1× Wash Buffer. 100 μL of room temperature Developing Solution was added to each well. The reaction was allowed to develop for 2-10 minutes until a medium dark blue color developed (depending on the subunit activity in the lot of extract or lot of recombinant protein used) and then the reaction was stopped with 100 μL Stop Solution yielding a yellow color. Absorbance was recorded using a Becton-Dickinson DTX 880 Multimode Detector at 450 nm with a reference wavelength subtracted at 620 nm.

[3] = tested on: NF-κB driven transcription (pTRH1-NF-κB-dscGFP reporter, 293 cells); test: NF-kB/293/GFP reporter cell assay; type: cell-based; settings: Homo sapiens, HEK293; compound 2 hours, then 20 ng/ml TNF-α for 18 hours; fluorescence
Description: as §1

SMILES | inhibition at 5 µM [2] [%] | EC50 [1] [µM] | EC50 [3] [µM]
CCCC(C)C(=O)Oc1ccccc1C(=O)NC1=CC(=O)C2OC2C1O (racemic) [Example 4, (±)-2-(2-hydroxy-5-oxo-7-oxabicyclo[4.1.0]hept-3-en-3-ylcarbamoyl)phenyl 2-methylpentanoate] | 9 | 10 | 17
CC(C)OC(=O)OC1C(NC(=O)c2ccccc2O)=CC(=O)C2OC21 (racemic) [Example 8] | 2 | 10 | 14
CC(C)OC(=O)Oc1ccccc1C(=O)NC1=CC(=O)C2OC2C1O (racemic) [Example 7, (±)-2-(2-hydroxy-5-oxo-7-oxabicyclo[4.1.0]hept-3-en-3-ylcarbamoyl)phenyl isopropyl carbonate] | 5 | 17 | 8.4
CC(C)(C)CC(=O)Oc1ccccc1C(=O)NC1=CC(=O)C2OC2C1O (racemic) [Example 6, (±)-2-(2-hydroxy-5-oxo-7-oxabicyclo[4.1.0]hept-3-en-3-ylcarbamoyl)phenyl 3,3-dimethylbutanoate] | 6 | 8 | 10
CCCCC(CC)C(=O)Oc1ccccc1C(=O)NC1=CC(=O)C2OC2C1O (racemic) [Example 5, (±)-2-(2-hydroxy-5-oxo-7-oxabicyclo[4.1.0]hept-3-en-3-ylcarbamoyl)phenyl 2-ethylhexanoate] | 9 | 15 | 6.7

The next lines start with results.

inhibition at 5 µM [2] [%] | SMILES | EC50 [1] [µM] | EC50 [3] [µM]
0 | CC(C)OC(=O)Oc1ccccc1C(=O)NC1=CC(=O)C2OC2C1OC(=O)OC(C)C (racemic) [Example 2, (±)-3-(2-isopropoxycarbonyloxy-benzoylamino)-5-oxo-7-oxa-bicyclo[4.1.0]hept-3-en-2-yl ester isopropyl ester] | 11 | –
1 | CC(C)CC(=O)Oc1ccccc1C(=O)NC1=CC(=O)C2OC2C1O (racemic) [Example 1, (±)-2-(2-hydroxy-5-oxo-7-oxabicyclo[4.1.0]hept-3-en-3-ylcarbamoyl)phenyl 3-methylbutanoate] | 18 | 11
3 | O=C(CC1CCCCC1)Oc1ccccc1C(=O)NC1=CC(=O)C2OC2C1O (racemic) [Example 3, (±)-2-(2-hydroxy-5-oxo-7-oxabicyclo[4.1.0]hept-3-en-3-ylcarbamoyl)phenyl 2-cyclohexylacetate] | 14 | 10
